From patent publication US20220241308A1, “NEURONAL FUNCTION MODULATING AGENT” (University of Tsukuba, priority 2019, published 2022)

Columns and labels:
Format in all cases: cell-based
[1] = tested on: PI3KCA (phosphatidylinositol-4,5-bisphosphate 3-kinase catalyst subunit α); test: Gene expression experiment (real-time PCR) in SH-SY5Y cells: PI3KCA; details: for expression of PI3KCA: 24 h
Procedure: (§1) SH-SY5Y cells were seeded in 100 mm-cell dishes (BD Biocoat) at concentrations of 3.7×10^5 cells/mL (10 mL/dish) and cultured for 24 h at 37° C. and 5% CO2. Culture medium used was F12/DMEM (Gibco) supplemented with 1% non-essential amino acids (Gibco), 15% FBS (Bio West), and 1% penicillin/streptomycin (Lonza). After 24 h, the culture medium was completely removed with an aspirator, 10 mL of culture medium Opti-MEM(Gibco) was added to each dish, and the cells were cultured for 24 h at 37° C. and 5% CO2. RNA was extracted from the culture cells and analyzed for the expression of genes described below by real-time PCR (designated as “Control” in FIGS. 2 to 8).
(§2) RNA extraction was performed using ISOGEN Reagent (Nippon Gene Co., Ltd.) in accordance with the protocol recommended by Nippo n Gene Co., Ltd. (see URL: https://www.nippongene.com/siyaku/product/extraction/tds/tds_isogen-rna-dna-protein.pdf). Real-time PCR was performed according to the protocol recommended by Thermo Fisher Scientific using a reagent kit for TaqMan Real-Time PCR (Thermo Fisher Scientific) (see URL: https://assets.thermofisher.com/TFS-Assets/LSG/manuals/4304449_TaqManPCRMM_UG.pdf).
(§3) 24 h after seeding 100 mm-cell dishes (BD Biocoat) with SH-SY5Y cells, the culture medium was completely removed with an aspirator, amyloid β protein (Beta-Amyloid 1-42, AnaSpec) was mixed with Opti-MEM (Gibco) so that the final concentration was 5 μM, 10 mL of the mixture was added to each dish, the cells were cultured for 24 h at 37° C. and 5% CO2, and RNA was extracted. Except for performing the procedure described above, gene expression was analyzed as described above (designated as “Aβ” in FIGS. 2 to 8).
(§4) 24 h after seeding 100 mm-cell dishes (BD Biocoat) with SH-SY5Y cells, the culture medium was completely removed with an aspirator, Sample 1 was mixed with culture medium Opti-MEM(Gibco) so that the final concentration was 12.56 μM, 9,990 μL of the mixture was added to each dish and allowed to stand for 10 min, amyloid β protein (Beta-Amyloid 1-42, AnaSpec) was mixed with Opti-MEM (Gibco) so that the final concentration was […], 10 μL of the mixture was added to each well, the cells were cultured for 24 h at 37° C. and 5% CO2, and RNA was extracted. Except for performing the procedure described above, Gene expression was analyzed as described above (designated as “Aβ+M3,5G” in FIGS. 2 to 8).
(§5) Except that Sample 2 was used instead of Sample 1, gene expression was analyzed as described above (designated as “Aβ+M” in FIGS. 2 to 8).
(§6) Except that Sample 3 was used instead of Sample 1, gene expression was analyzed as described above (designated as “Aβ+M3G” in FIGS. 2 to 8).
(§7) 24 h after seeding 100 mm-cell dishes (BD Biocoat) with SH-SY5Y cells, the culture medium was completely removed with an aspirator, 10 mL of culture medium Opti-MEM(Gibco) mixed with Sample 1 was added to each dish, the cells were cultured for 24 h at 37° C. and 5% CO2, and RNA was extracted. Except for performing the procedure described above, gene expression was analyzed as described above (designated as “M3,5G” in FIGS. 2 to 8).

[2] = tested on: MAPK8 (mitogen-activated protein kinase 8); test: Gene expression experiment (real-time PCR) in SH-SY5Y cells: MAPK8; details: 24 h
Procedure: as §1, §2, §3, §4, §5
Except that Sample 3 was used instead of Sample 1, gene expression was analyzed as described above (designated as “Aβ+M3G” in FIGS. 2 to 8). […]

CASP3 (caspase-3) = test: Gene expression experiment (real-time PCR) in SH-SY5Y cells: CASP3; details: for expression of CASP3: 24 h
Procedure: as §1, §2, §3, §4, §5, §6, §7

SH-SY5Y cells = test: ATP production measurement experiment; details: 12.56 μM; 6 h, 12 h, 24 h; compared to “Control”
Procedure: Specifically, ATP production was measured according to the protocol recommended by Toyo B-NET (URL: https://search.cosmobio.co.jp/cosmo_search_p/search_gate2/docs/TIC_/CA10.20131125.pdf) using an ATP assay reagent (“Cell” ATP Assay reagent, Toyo B-NET) (designated as “Control” in FIG. 9).
Each well of a 96-well plate (BD Biocoat) was seeded with SH-SY5Y cells (model of neuronal cells, ATCC) at a concentration of 2×10^5 cells/mL (100 μL/well) and the cells were cultured at 37° C. and 5% CO2 for 24 h. Culture medium used was F12/DMEM (Gibco) supplemented with 1% non-essential amino acids (Gibco), 15% FBS (Bio West), and 1% penicillin/streptomycin (Lonza).
After 24 h, the culture medium was completely removed with an aspirator, 100 μL of culture medium Opti-MEM (Gibco) was added to each well, and the cells were cultured for 6 h, 12 h, and 24 h at 37° C. and 5% CO2. After each culturing time point, 100 μL of ATP assay reagent (“Cell” ATP Assay reagent, Toyo Ink)) was added to each well and mixed and the mixture was allowed to stand for reaction for 10 min at room temperature in dark conditions. […] Light emission after a lapse of a predetermined time was measured on a microplate reader (Sumitomo Dainippon Pharma) to find ATP production (designated as “Control” in FIG. 9). […]

[3] = 12.56 μM, amyloid β protein-treated cells, compared to “Aβ”
[4] = 12.56 μM, amyloid β protein-treated cells, compared to “Control”
[5] = Sample 1 alone, no amyloid β, compared to “Control”
[6] = amyloid β protein-treated cells, 12.56 μM, ranked against malvidin and malvidin-3-glucoside

For `COc1cc(-c2[o+]c3cc(O)cc(OC4OC(CO)C(O)C(O)C4O)c3cc2OC2OC(CO)C(O)C(O)C2O)cc(OC)c1O` (stereo not drawn) [M3,5G, Malvidin-3,5-diglucoside chloride], the “expression of PI3KCA” value [1, 3] was “significantly high”, the “expression of PI3KCA” value [1, 4] was “significantly high” and the “expression of PI3KCA” value [1, 5] was “significantly increased”. For the same compound, the “activity in increasing the expression of PI3KCA” value [1, 6] was “highest activity”, the “expression of MAPK8” value [2, 3] was “significantly high” and the “expression of MAPK8” value [2, 4] was “significantly high”. The “expression of MAPK8” value [2, 5] was “significantly increased”, the “expression of CASP3” value (CASP3 (caspase-3); [3]) was “significantly low” and the “expression of CASP3” value (CASP3 (caspase-3); [4]) was “significantly low”. The “expression of CASP3” value (CASP3 (caspase-3); [5]) was “significantly decreased”, the “activity in decreasing the expression of CASP3” value (CASP3 (caspase-3); [6]) was “highest activity” and the ATP production (SH-SY5Y cells) was “increased ATP production”.
